Assay results published in publication PMC3961306, “Comparison of the Cancer Gene Targeting and Biochemical Selectivities of All Targeted Kinase Inhibitors Approved for Clinical Use” (PLoS ONE, 2014).

Assays:
Assay in all cases: Kinase profiling in a biochemical assay panel (mobility shift assays and ELISA), %-inhibition at 1 μM; selectivity entropy
[1] = target: panel of more than 300 wild-type and mutant kinases (313 kinase panel) (Homo sapiens, UniProt O75116)
[2] = target: panel of more than 300 wild-type and mutant kinases (313 kinase panel) (Homo sapiens, UniProt O75676)
[3] = target: panel of more than 300 wild-type and mutant kinases (313 kinase panel) (Homo sapiens, UniProt P10721, D816V)
[4] = target: panel of more than 300 wild-type and mutant kinases (313 kinase panel) (Homo sapiens, UniProt P10721, V654A)
[5] = target: panel of more than 300 wild-type and mutant kinases (313 kinase panel) (Homo sapiens, UniProt P16234, V561D)
[6] = target: panel of more than 300 wild-type and mutant kinases (313 kinase panel) (Homo sapiens, UniProt P22607)
[7] = target: panel of more than 300 wild-type and mutant kinases (313 kinase panel) (Homo sapiens, UniProt P22607, K650M)
[8] = target: panel of more than 300 wild-type and mutant kinases (313 kinase panel) (Homo sapiens, UniProt P27361)
[9] = target: panel of more than 300 wild-type and mutant kinases (313 kinase panel) (Homo sapiens, UniProt P48729)
[10] = target: panel of more than 300 wild-type and mutant kinases (313 kinase panel) (Homo sapiens, UniProt P49674)
[11] = target: panel of more than 300 wild-type and mutant kinases (313 kinase panel) (Homo sapiens, UniProt P68400)
[12] = target: panel of more than 300 wild-type and mutant kinases (313 kinase panel) (Homo sapiens, UniProt Q06187); conditions: kinase BTK; 1 μM compound
[13] = target: panel of more than 300 wild-type and mutant kinases (313 kinase panel) (Homo sapiens, UniProt Q13164)
[14] = target: panel of more than 300 wild-type and mutant kinases (313 kinase panel) (Homo sapiens, UniProt Q14289)
[15] = target: panel of more than 300 wild-type and mutant kinases (313 kinase panel) (Homo sapiens, UniProt Q15375)
[16] = target: T1, panel of more than 300 wild-type and mutant kinases (313 kinase panel) (Homo sapiens, UniProt Q15831)
T1 sequence (Q15831 1-433): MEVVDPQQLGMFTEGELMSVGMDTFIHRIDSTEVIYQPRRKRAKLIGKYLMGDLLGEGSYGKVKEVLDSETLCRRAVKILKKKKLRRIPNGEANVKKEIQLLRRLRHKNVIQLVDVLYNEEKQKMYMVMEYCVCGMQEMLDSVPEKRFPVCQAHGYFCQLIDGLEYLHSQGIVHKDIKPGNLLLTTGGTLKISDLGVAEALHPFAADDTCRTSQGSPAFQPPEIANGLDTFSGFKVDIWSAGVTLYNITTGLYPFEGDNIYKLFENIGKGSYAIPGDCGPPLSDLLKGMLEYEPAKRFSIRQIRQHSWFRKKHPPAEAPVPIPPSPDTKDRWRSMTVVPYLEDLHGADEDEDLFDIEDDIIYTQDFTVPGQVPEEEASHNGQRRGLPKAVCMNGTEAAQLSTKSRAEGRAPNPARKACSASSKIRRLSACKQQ

[17] = target: panel of more than 300 wild-type and mutant kinases (313 kinase panel) (Homo sapiens, UniProt Q13882)
[18] = target: panel of more than 300 wild-type and mutant kinases (313 kinase panel) (Homo sapiens, UniProt Q16620)
[19] = target: panel of more than 300 wild-type and mutant kinases (313 kinase panel) (Homo sapiens, UniProt P08581)
[20] = kinase KIT(D816V), compound at 1 μM
[21] = kinase KIT(V654A), compound at 1 μM
[22] = kinase FGFR3(K650M), compound at 1 μM

Chain of panel of more than 300 wild-type and mutant kinases (313 kinase panel) (Homo sapiens, UniProt Q14289) (Q14289 whole entry, change not shown): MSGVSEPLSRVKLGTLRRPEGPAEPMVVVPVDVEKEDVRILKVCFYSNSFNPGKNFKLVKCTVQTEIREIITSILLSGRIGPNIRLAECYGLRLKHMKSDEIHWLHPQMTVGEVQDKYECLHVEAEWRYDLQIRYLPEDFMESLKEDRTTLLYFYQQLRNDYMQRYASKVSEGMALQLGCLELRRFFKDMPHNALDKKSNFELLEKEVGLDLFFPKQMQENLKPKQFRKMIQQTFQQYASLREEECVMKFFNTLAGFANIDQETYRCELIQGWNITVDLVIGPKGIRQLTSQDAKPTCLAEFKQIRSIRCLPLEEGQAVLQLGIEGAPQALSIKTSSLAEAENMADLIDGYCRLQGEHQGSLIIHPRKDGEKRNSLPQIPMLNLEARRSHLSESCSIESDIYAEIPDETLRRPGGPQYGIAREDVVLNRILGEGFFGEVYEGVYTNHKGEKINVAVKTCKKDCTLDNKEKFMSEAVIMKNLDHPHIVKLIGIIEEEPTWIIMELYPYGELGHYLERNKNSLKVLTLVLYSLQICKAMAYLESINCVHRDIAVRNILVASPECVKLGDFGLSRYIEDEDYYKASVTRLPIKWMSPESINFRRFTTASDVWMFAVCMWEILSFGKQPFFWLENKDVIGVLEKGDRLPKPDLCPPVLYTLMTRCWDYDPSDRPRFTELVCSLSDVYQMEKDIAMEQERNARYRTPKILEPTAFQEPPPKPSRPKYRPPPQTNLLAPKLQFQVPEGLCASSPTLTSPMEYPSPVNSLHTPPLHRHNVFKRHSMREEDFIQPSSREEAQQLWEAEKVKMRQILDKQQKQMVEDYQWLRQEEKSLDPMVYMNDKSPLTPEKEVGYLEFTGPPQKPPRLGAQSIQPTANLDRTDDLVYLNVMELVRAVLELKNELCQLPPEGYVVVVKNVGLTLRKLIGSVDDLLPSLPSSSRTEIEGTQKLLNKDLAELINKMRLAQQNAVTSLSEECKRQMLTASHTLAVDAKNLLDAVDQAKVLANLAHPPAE
Chain of panel of more than 300 wild-type and mutant kinases (313 kinase panel) (Homo sapiens, UniProt Q15375) (Q15375 28-998, change not shown): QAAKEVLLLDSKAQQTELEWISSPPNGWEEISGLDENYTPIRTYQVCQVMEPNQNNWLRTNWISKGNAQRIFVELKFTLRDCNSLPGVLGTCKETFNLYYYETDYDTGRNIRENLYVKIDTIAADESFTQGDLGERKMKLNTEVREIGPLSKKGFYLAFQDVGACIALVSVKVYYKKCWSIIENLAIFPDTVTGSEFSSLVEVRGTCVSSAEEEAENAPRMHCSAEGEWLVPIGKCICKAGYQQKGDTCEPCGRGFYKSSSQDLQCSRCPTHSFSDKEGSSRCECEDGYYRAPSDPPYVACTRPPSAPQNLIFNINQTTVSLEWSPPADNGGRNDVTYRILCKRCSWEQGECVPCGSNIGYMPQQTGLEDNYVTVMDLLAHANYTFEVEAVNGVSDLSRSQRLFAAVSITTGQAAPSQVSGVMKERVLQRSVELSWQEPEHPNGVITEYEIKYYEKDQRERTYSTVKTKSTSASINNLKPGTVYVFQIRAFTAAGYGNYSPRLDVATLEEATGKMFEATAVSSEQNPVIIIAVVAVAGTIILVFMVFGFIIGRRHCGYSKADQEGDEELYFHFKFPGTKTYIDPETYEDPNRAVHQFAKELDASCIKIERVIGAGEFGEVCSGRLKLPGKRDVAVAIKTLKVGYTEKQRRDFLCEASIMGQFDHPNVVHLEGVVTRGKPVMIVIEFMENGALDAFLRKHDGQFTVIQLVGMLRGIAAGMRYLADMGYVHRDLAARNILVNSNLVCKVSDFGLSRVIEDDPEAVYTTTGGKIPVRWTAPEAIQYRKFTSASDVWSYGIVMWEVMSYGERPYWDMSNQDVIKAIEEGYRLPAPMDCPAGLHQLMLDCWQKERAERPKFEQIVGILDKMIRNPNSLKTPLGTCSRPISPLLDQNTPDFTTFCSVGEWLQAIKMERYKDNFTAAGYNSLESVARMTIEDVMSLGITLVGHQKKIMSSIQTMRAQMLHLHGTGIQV
Chain of panel of more than 300 wild-type and mutant kinases (313 kinase panel) (Homo sapiens, UniProt P22607, K650M) (P22607 23-806 K650M): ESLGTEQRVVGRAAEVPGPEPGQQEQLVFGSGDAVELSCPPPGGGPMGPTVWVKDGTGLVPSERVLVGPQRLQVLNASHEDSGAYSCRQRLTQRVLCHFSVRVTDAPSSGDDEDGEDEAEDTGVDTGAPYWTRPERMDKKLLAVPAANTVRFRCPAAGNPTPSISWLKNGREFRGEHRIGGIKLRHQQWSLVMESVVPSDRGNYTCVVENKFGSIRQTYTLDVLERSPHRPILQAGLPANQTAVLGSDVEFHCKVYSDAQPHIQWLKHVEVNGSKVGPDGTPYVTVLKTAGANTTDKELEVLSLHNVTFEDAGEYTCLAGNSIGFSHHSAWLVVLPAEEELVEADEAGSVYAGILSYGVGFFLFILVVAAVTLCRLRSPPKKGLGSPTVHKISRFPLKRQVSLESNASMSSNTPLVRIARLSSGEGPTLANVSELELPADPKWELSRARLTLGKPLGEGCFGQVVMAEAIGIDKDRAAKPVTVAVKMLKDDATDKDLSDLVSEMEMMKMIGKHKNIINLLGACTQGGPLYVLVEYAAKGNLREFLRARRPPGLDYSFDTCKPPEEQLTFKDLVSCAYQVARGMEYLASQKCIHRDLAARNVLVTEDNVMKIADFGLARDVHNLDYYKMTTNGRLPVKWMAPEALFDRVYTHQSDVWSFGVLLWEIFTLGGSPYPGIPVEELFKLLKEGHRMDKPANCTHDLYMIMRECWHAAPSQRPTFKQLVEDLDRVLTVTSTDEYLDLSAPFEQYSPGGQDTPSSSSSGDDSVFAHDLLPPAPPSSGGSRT
Chain of panel of more than 300 wild-type and mutant kinases (313 kinase panel) (Homo sapiens, UniProt P27361) (P27361 whole entry, change not shown): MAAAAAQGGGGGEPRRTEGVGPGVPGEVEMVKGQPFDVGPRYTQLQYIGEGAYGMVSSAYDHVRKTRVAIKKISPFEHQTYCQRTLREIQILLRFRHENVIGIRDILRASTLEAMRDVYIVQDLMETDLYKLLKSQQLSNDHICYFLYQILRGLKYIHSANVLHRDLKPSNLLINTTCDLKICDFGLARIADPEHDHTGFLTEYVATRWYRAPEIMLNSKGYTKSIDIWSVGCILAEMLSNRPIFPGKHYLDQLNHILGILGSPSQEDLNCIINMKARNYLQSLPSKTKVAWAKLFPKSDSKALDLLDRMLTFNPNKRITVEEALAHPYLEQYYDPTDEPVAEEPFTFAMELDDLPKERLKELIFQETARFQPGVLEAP
Chain of panel of more than 300 wild-type and mutant kinases (313 kinase panel) (Homo sapiens, UniProt P22607) (P22607 23-806, stated change not applied): as the sequence (P22607 23-806 K650M) above, with M628K counted along it
Chain of panel of more than 300 wild-type and mutant kinases (313 kinase panel) (Homo sapiens, UniProt P16234, V561D) (P16234 24-1089 V561D): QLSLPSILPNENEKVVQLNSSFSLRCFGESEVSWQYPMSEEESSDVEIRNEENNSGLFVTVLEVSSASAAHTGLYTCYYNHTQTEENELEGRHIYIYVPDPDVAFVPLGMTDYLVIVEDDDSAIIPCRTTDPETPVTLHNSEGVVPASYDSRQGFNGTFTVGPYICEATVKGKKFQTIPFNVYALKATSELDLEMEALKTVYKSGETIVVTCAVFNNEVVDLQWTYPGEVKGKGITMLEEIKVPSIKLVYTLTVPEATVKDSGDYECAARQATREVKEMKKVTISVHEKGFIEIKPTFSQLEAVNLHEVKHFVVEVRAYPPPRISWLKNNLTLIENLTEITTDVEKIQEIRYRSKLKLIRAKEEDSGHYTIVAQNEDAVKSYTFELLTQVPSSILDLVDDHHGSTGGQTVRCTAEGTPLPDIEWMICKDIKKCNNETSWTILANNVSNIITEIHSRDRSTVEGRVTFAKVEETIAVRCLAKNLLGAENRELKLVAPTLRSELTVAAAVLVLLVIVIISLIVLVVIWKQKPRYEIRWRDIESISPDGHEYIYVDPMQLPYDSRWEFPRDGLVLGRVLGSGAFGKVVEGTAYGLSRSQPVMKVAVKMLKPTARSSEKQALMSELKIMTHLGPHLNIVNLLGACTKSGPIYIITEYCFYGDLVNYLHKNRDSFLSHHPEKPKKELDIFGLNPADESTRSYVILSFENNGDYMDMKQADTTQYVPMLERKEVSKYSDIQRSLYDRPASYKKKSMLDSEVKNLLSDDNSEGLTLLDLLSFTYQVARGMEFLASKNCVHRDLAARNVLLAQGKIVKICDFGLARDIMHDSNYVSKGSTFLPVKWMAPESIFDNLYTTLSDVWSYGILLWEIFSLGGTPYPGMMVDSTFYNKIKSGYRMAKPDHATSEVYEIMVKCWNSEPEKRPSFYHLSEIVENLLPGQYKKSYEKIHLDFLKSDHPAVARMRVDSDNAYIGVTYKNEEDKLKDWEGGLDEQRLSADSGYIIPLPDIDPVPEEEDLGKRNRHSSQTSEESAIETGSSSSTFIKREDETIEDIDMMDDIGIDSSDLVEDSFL
Chain of panel of more than 300 wild-type and mutant kinases (313 kinase panel) (Homo sapiens, UniProt Q13882) (Q13882 whole entry, change not shown): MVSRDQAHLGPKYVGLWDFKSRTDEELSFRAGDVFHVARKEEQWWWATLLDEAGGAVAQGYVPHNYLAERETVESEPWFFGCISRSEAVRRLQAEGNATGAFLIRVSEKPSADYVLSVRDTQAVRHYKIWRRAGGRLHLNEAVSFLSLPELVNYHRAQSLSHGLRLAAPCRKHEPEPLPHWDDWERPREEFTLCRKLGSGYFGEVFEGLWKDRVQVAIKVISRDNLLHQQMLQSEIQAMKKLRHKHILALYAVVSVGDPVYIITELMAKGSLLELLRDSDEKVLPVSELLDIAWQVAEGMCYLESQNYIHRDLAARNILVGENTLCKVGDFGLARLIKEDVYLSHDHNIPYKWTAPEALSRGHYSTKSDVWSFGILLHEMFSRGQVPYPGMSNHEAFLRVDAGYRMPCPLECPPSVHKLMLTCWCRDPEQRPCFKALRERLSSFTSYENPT

Compound | %-inhibition of ROCK2 ([1]; kinase ROCK2, 1 μM) [%] | %-inhibition of MSK2 ([2]; kinase MSK2, 1 μM) [%] | %-inhibition of KIT(D816V) [3, 20] [%] | %-inhibition of KIT(V654A) [4, 21] [%] | %-inhibition of PDGFRα(V561D) ([5]; kinase PDGFRα(V561D), 1 μM) [%] | %-inhibition of FGFR3 ([6]; kinase FGFR3, compound at 1 μM) [%] | %-inhibition of FGFR3(K650M) [7, 22] [%] | %-inhibition of Erk1 ([8]; kinase Erk1, compound at 1 μM) [%] | %-inhibition, CK1α ([9]; kinase CK1α, 1 μM compound) [%] | %-inhibition, CK1ε ([10]; kinase CK1ε, 1 μM compound) [%] | %-inhibition, CK2α1/β ([11]; kinase CK2α1/β, 1 μM compound) [%] | %-inhibition, BTK [12] [%] | %-inhibition of Erk5 ([13]; kinase Erk5, compound at 1 μM) [%] | %-inhibition of PYK2 ([14]; kinase PYK2, 1 μM) [%] | %-inhibition of EPHA7 ([15]; kinase EPHA7, compound at 1 μM) [%] | %-inhibition of LKB1 ([16]; kinase LKB1, compound at 1 μM) [%] | %-inhibition, BRK ([17]; kinase BRK, 1 μM compound) [%] | %-inhibition of TRKB ([18]; kinase TRKB, 1 μM) [%] | other results
COc1cc2nccc(Oc3ccc(NC(=O)C4(C(=O)Nc5ccc(F)cc5)CC4)cc3)c2cc1OC [cabozantinib] | 15 | -3.52 | 23 | 97 | 99 | 8 | 10 | -1.33 | -9 | 3.28 | -2.76 | 93 | -2 | 91 | 99 | -3.17 |  |  | 
C[C@@H](Oc1cc(-c2cnn(C3CCNCC3)c2)cnc1N)c1c(Cl)ccc(F)c1Cl [crizotinib] | 4.25 | -1.8 | 21 | -3.75 | 30 | 43 | 61 | -2 | -1.36 | 4 |  |  | 45 |  |  | -1.39 | 15 | 102 | %-inhibition, CK2α1/β ([11]; 1 µM): -6.39%
Cc1nc(Nc2ncc(C(=O)Nc3c(C)cccc3Cl)s2)cc(N2CCN(CCO)CC2)n1 [dasatinib] |  |  |  |  |  |  |  |  | -8.44 |  | -1.7 |  | 5 |  |  | 0.734 |  |  | 
C#Cc1cccc(Nc2ncnc3cc(OCCOC)c(OCCOC)cc23)c1 [erlotinib] |  |  |  |  |  |  |  |  |  |  |  |  |  |  |  |  |  |  | %-inhibition of ROCK2 ([1]; 1 µM): 4.44%; %-inhibition of MSK2 ([2]; 1 µM): 5%; %-inhibition of MET ([19]; 1 µM): 13%; %-inhibition of KIT(D816V) ([3]; 1 µM): 32%; %-inhibition of KIT(V654A) ([4]; 1 µM): 1.65%; %-inhibition of PDGFRα(V561D) ([5]; 1 µM): 56%; %-inhibition of FGFR3 ([6]; 1 µM): 63%; %-inhibition of FGFR3(K650M) ([7]; 1 µM): 87%; %-inhibition of Erk1 ([8]; 1 µM): 0.357%; %-inhibition, CK1α ([9]; 1 µM): 10%; %-inhibition, CK1ε ([10]; 1 µM): -2.38%; %-inhibition, CK2α1/β ([11]; 1 µM): 0%; %-inhibition of Erk5 ([13]; 1 µM): 21%; %-inhibition, BRK ([17]; 1 µM): 47%; %-inhibition of PYK2 ([14]; 1 µM): 8%; %-inhibition of EPHA7 ([15]; 1 µM): 46%; %-inhibition of LKB1 ([16]; 1 µM): 2%; %-inhibition of TRKB ([18]; 1 µM): 0.183%
CS(=O)(=O)CCNCc1ccc(-c2ccc3ncnc(Nc4ccc(OCc5cccc(F)c5)c(Cl)c4)c3c2)o1 [lapatinib] |  | 2 |  |  |  | 0.327 | 1.23 | -4 | 3.6 |  | -1.7 |  |  | -0.787 | 6.56 | 4 |  | -10 | %-inhibition of ROCK2 ([1]; 1 µM): -2%; %-inhibition of MET ([19]; kinase MET, compound at 1 μM): 0%; %-inhibition of KIT(D816V) ([3]; 1 µM): -3%; %-inhibition of PDGFRα(V561D) ([5]; 1 µM): -1%; %-inhibition, CK1ε ([10]; 1 µM): 1.64%; %-inhibition of Erk5 ([13]; 1 µM): -0.8%; %-inhibition, BRK ([17]; 1 µM): 63%
Cc1ccc(Nc2nccc(N(C)c3ccc4c(C)n(C)nc4c3)n2)cc1S(N)(=O)=O [pazopanib] | -0.78 | 1.45 | 87 | 87 |  |  |  | -3.79 | -4 | 0 | -3 | 13 | 16 | 39 | 12 | 28 | 70 |  | 
Cc1ccc(C(=O)Nc2ccc(CN3CCN(C)CC3)c(C(F)(F)F)c2)cc1C#Cc1cnc2cccnn12 [ponatinib] | 63 | 27 |  |  | 103 | 101 | 100 |  | 8 |  |  | 95 | 3.45 | 99 |  | -12 | 97 | 100 | %-inhibition of MET ([19]; kinase MET, compound at 1 μM): 17%
CCN(CC)CCNC(=O)c1c(C)[nH]c(/C=C2\C(=O)Nc3ccc(F)cc32)c1C [sunitinib] |  |  |  |  |  | 97 | 97 |  |  | 45 | -21 |  | 22 | 94 |  | 11 |  |  | 
COc1cc2c(Nc3ccc(Br)cc3F)ncnc2cc1OCC1CCN(C)CC1 [vandetanib] | -0.708 | -3.21 |  |  | 100 |  |  | -1.55 | -3.59 |  | -7 |  | 9 | 6 | 81 | -4.54 | 100 | 26 | 
